Tests used:
[1] = system: HCT-116 human colon carcinoma cells; assay: In vitro cytotoxicity, XTT assay; format: cell-based; conditions: 72 h incubation, Examples 1 and 4 as free acid, example 3 as sodium salt
[2] = system: HCT-116/VM46 human colon carcinoma cells; assay: In vitro cytotoxicity, XTT assay, multi-drug resistant line; format: cell-based; conditions: 72 h incubation, teniposide-selected, paclitaxel-resistant cells, Examples 1 and 4 as free acid, example 3 as sodium salt
M109 lung carcinoma [3] = assay: In vivo antitumor activity, subcutaneous M109 model; design: species or system mice; conditions: for T-C / max. % T/C: once daily x5 from Day 4
[4] = system: HCT-116 human colon carcinoma; assay: HCT-116 human tumor xenograft model; format: in vivo; conditions: for cures (tumor-free on Day 80 post tumor implant): athymic mice, every other day x5
M109 lung carcinoma [5] = assay: Mice M109 model, intraperitoneal implant; format: in vivo; conditions: ip M109, ip injections, d. 5 + 9, median survival
Procedure: Balb/c x DBA/2 F1 hybrid mice were implanted intraperitoneally, as described by William Rose in Evaluation of Madison 109 Lung Carcinoma as a Model for Screening Antitumor Drugs, Cancer Treatment Reports, 65, No. 3-4 (1981), with 0.5 mL of a 2% (w/v) brei of M109 lung carcinoma.
Mice were treated with compound under study by receiving intraperitoneal injections of various doses on either days 1, 5 and 9 post-tumor implant or days 5 and 8 post-implant. Mice were followed daily for survival until approximately 75 -90 days post-tumor implant. One group of mice per experiment remained untreated and served as the control group. Median survival times of compound-treated (T) mice were compared to the median survial time of the control (C) mice. The ratio of the two values for each compound-treated group of mice was multiplied by 100 and expressed as a percentage (i.e. % T/C) in Table III for representative compounds of formula (B′).

[6] = system: A2780/cDDP human ovarian carcinoma resistant to cisplatin; assay: A2780/cDDP human tumor xenograft model; format: in vivo; conditions: athymic mice, every other day x5
[7] = another M109 experiment, triethanolamine salt, iv, 48 mg/kg/inj.
[8] = another M109 experiment, triethanolamine salt, orally, 200 mg/kg/adm.
[9] = one M109 experiment, triethanolamine salt, iv in water, 36 mg/kg/inj.
[10] = one M109 experiment, triethanolamine salt, orally, 160 mg/kg/adm.
[11] = iv, 36 mg/kg/inj, Example 3 as triethanolamine salt
[12] = another M109 experiment, iv, 48 or 36 mg/kg/inj.
[13] = one M109 experiment, iv, 36 or 18 mg/kg/inj.
[14] = sc M109, i.v. once daily days 5-9, opt. dose 18 mg/kg/inj

7-O-phosphonooxymethylpaclitaxel [Example 1]
IC50 [1]: 0.0158 µM | IC50 [2]: 1.24 µM | Maximum Effect T-C (M109 lung carcinoma [3]; sc M109, CDF1 mice, sodium salt, i.v. once daily days 4-8, opt. dose 45 mg/kg/inj, delay to 1 gm tumor): 14.0 days | Maximum Effect % T/C (M109 lung carcinoma [3]; sc M109, CDF1 mice, sodium salt, i.v. once daily days 4-8 post-tumor implant, opt. dose 45 mg/kg/inj, median survival): 131% | oral activity in the M109 model (M109 lung carcinoma [3]; triethanolamine salt, oral): oral activity | oral activity in the HCT-116 model ([4]; triethanolamine salt, oral): oral activity

CSCO[C@H]1C[C@H]2OC[C@@]2(OC(C)=O)[C@H]2[C@H](OC(=O)c3ccccc3)[C@]3(O)C[C@H](OC(=O)[C@H](O)[C@@H](NC(=O)OC(C)(C)C)c4ccccc4)C(C)=C([C@@H](OC(C)=O)C(=O)[C@]12C)C3(C)C [14 (b), 3′-N-debenzoyl-3′-N-(t-butoxycarbonyl)-7-O-methylthiomethylpaclitaxel]
T/C (mg/kg/inj.; schedule in days) (M109 lung carcinoma [5]; 12 mg/kg/inj.): 143 (12; d. 5 + 9) %

CSCO[C@H]1C[C@H]2OC[C@@]2(OC(C)=O)[C@H]2[C@H](OC(=O)c3ccccc3)[C@]3(O)C[C@H](OC(=O)[C@H](O)[C@@H](NC(=O)c4ccccc4)c4ccccc4)C(C)=C([C@@H](OC(C)=O)C(=O)[C@]12C)C3(C)C [Example 1 (a), 7-O-methylthiomethylpaclitaxel]
IC50 [1]: 0.003 µM | IC50 [2]: 0.025 µM

CCOC(=O)O[C@@H](C(=O)O[C@H]1C[C@@]2(O)[C@@H](OC(=O)c3ccccc3)[C@@H]3[C@]4(OC(C)=O)CO[C@@H]4C[C@H](OCOP(=O)(O)O)[C@@]3(C)C(=O)[C@H](OC(C)=O)C(=C1C)C2(C)C)[C@@H](NC(=O)c1ccccc1)c1ccccc1 [Example 3, 2′-O-(ethoxycarbonyl)-7-O-phosphonooxymethylpaclitaxel]
IC50 [1]: 0.312 µM | IC50 [2]: 6.25 µM | T-C (M109 lung carcinoma [3]; [7]): 17 days | max. % T/C (M109 lung carcinoma [3]; [7]): 170% | T-C (M109 lung carcinoma [3]; [8]): 17 days | max. % T/C (M109 lung carcinoma [3]; [8]): 172% | T-C (M109 lung carcinoma [3]; [9]): 19 days | max. % T/C (M109 lung carcinoma [3]; [9]): 155% | T-C (M109 lung carcinoma [3]; [10]): 22.8 days | max. % T/C (M109 lung carcinoma [3]; [10]): 158% | Maximum Effect T-C (M109 lung carcinoma [3]; sc M109, sodium salt, i.v. once daily days 5-9, opt. dose 24 mg/kg/inj): 18.8 days | Maximum Effect % T/C (M109 lung carcinoma [3]; sc M109, sodium salt, i.v. once daily days 5-9 post-tumor implant, opt. dose 24 mg/kg/inj): 160% | max. T-C [6, 11]: 29.8 days | max. T-C ([6]; orally, 160 mg/kg/adm., triethanolamine salt): 20 days | cures (tumor-free on Day 80 post tumor implant) ([4]; oral, 160 mg/kg/adm., triethanolamine salt, of 8 treated mice): 6 | cures (tumor-free on Day 80 post tumor implant) ([4]; oral, 240 mg/kg/adm., triethanolamine salt, of 8 treated mice): 7

CC(=O)O[C@H]1C(=O)[C@@]2(C)[C@H]([C@H](OC(=O)c3ccccc3)[C@]3(O)C[C@H](OC(=O)[C@H](OCOP(=O)(O)O)[C@@H](NC(=O)c4ccccc4)c4ccccc4)C(C)=C1C3(C)C)[C@]1(OC(C)=O)CO[C@@H]1C[C@@H]2O [Example 4, 2′-O-(Phosphonooxymethyl)paclitaxel]
IC50 [1]: 0.0457 µM | IC50 [2]: > 6.3 µM

CCOC(=O)O[C@@H](C(=O)O[C@H]1C[C@@]2(O)[C@@H](OC(=O)c3ccccc3)[C@@H]3[C@]4(OC(C)=O)CO[C@@H]4C[C@H](OCSC)[C@@]3(C)C(=O)[C@H](OC(C)=O)C(=C1C)C2(C)C)[C@@H](NC(=O)OC(C)(C)C)c1ccccc1 [Example 15, 3′-N-debenzoyl-3′-N-(t-butoxycarbonyl)-2′-O-ethyloxycarbonyl-7-O-methylthiomethylpaclitaxel]
T/C (mg/kg/inj.; schedule in days) (M109 lung carcinoma [5]; 8 mg/kg/inj.): 192 (8; d. 5 + 9) %

CC(=O)O[C@@]12CO[C@@H]1C[C@H](O)[C@@]1(C)C(=O)[C@H](O)C3=C(C)[C@@H](OC(=O)[C@H](O)[C@@H](NC(=O)OC(C)(C)C)c4ccccc4)C[C@@](O)([C@@H](OC(=O)c4ccccc4)[C@H]21)C3(C)C [Texotere ®, reference compound]
IC50 [1]: 0.004 µM | IC50 [2]: 0.213 µM

CC(=O)O[C@H]1C(=O)[C@@]2(C)[C@H]([C@H](OC(=O)c3ccccc3)[C@]3(O)C[C@H](OC(=O)[C@H](O)[C@@H](NC(=O)c4ccccc4)c4ccccc4)C(C)=C1C3(C)C)[C@]1(OC(C)=O)CO[C@@H]1C[C@@H]2O [paclitaxel, reference compound]
IC50 [1]: 0.004 µM | IC50 [2]: 0.44 µM | activity in sc M109 model (M109 lung carcinoma [3]; another M109 experiment, dissolved in cremophore/ethanol/saline, 60/mg/kg/inj.): did not show activity | T-C (M109 lung carcinoma [3]; [12]): 14 days | max. % T/C (M109 lung carcinoma [3]; [12]): 167% | activity in sc M109 model (M109 lung carcinoma [3]; one M109 experiment, 160 mg/kg/adm. (highest tested), suspended in water and Tween 80): did not show activity | T-C (M109 lung carcinoma [3]; [13]): 13 days | max. % T/C (M109 lung carcinoma [3]; [13]): 132% | Maximum Effect T-C (M109 lung carcinoma [3]; sc M109, i.v. once daily days 4-8, opt. dose 24 mg/kg/inj (lower dose gave maximum delay in tumor growth)): 14 days | Maximum Effect % T/C (M109 lung carcinoma [3]; sc M109, i.v. once daily days 4-8, opt. dose 48 mg/kg/inj (higher dose gave maximum increase in lifespan)): 134% | Maximum Effect % T/C (M109 lung carcinoma [3]; [14]): 151% | Maximum Effect T-C (M109 lung carcinoma [3]; [14]): 15 days | max. T-C [6, 11]: 26.3 days | cures (tumor-free on Day 80 post tumor implant) ([4]; iv, 24 mg/kg/inj., of 7 treated mice): 6 | cures (tumor-free on Day 80 post tumor implant) ([4]; iv, 36 mg/kg/inj., of 8 treated mice): 6
